Measurements published in PMC5840262, “Design, Synthesis and Evaluation of Branched RRWQWR-Based Peptides as Antibacterial Agents Against Clinically Relevant Gram-Positive and Gram-Negative Pathogens” (Frontiers in Microbiology, 2018).

Assays:
[1] = tested on: clinical isolates of Gram-negative bacteria (Klebsiella pneumoniae, Pseudomonas aeruginosa); assay: Therapeutic index, Gram-negative clinical isolates
From the text: We determined the therapeutic index of each peptide, which we defined as the ratio of Maximum Hemolytic Activity (Hmax) to MIC50 (Hmax/MIC50).
The results are shown in Table 7 (Gram-positive) and Table 8 (Gram-negative). Regarding the Gram-positive bacteria, the palindromic, dimeric and tetrameric peptides were active chiefly against S. aureus. This trend was consistent with results of the experiments on the ATCC strains, in which these peptides were only active against the sensitive strain of the […] bacteria.

[2] = tested on: Pseudomonas aeruginosa clinical isolate 48,220; format: cell-based; conditions: P. aeruginosa isolate 48,220
Procedure: (§1) For the clinical isolates, we used 20 different isolates from the Public Health Reference Laboratory collection of the Secretaría de Salud del Distrito (SdSD; Bogotá, Colombia). The samples were collected from June to December 2016. For each isolate, the patient parameters (age, gender and location) and the culture site were recorded for epidemiologic monitoring (Table 1). All isolates had been previously tested for antibiotic sensitivity at the Public Health Microbiology Laboratory using either the Phoenix™ system (Gram-positive) or the VITEK 2 system (Gram-negative).
(§2) We screened all five peptides against the ATCC reference strains and the clinical isolates according to Method M7-A7 of the National Committee for Clinical Laboratory Standards (CLSI, [2007]). The MIC50 and MBC values were determined using a broth microdilution and growth inhibition method previously reported by Leon-Calvijo et al. ([2015]), with some modifications (Wiegand et al., [2008]). Briefly, the MIC50 experiments comprised a liquid-inhibition growth assay in a sterile, untreated, 96-well flat-bottom tissue culture plate. The bacteria were cultured overnight n Mueller Hinton agar; three colonies were transferred to 8 mL of Mueller Hilton broth and incubated at 37°C until the mid-exponential phase of growth. The turbidity of the cultures was measured and adjusted spectrophotometrically to a McFarland standard of 0.5, and then diluted to a final concentration of 5 × 10^7 colony forming units (CFU) per well. Stock solutions (2,000 μM) of each test peptide were serially diluted to final concentrations (per well) of 200, 100, 50, 25, 12.5, and 6.25 μM. Each concentration was evaluated in duplicate and each assay was performed in triplicate.
(§3) Wells containing Mueller Hilton broth with bacterial inoculum only served as bacterial-growth controls. Additional controls included Mueller Hilton broth alone (as blank) and Mueller Hilton broth with ciprofloxacin (2 μg/mL; as positive control). The microplate was incubated for 24 h at 37°C, and growth inhibition was measured by monitoring the optical density at 620 nm (OD620). The MIC50 was defined as the peptide concentration at which bacterial growth was inhibited by 50%.
(§4) To determine the MBC, an aliquot from each well of the MIC50 assay was spread onto Mueller Hilton agar. After 18 h at 37°C, the concentration that inhibited bacterial growth was determined. Each of these tests was performed four times. MBC was defined as the lowest concentration of peptide at which the number of bacteria was reduced by 99.9% in vitro (European Committee for Antimicrobial Susceptibility Testing, [2000]).

[3] = tested on: Enterococcus faecium clinical isolate 1,225; format: cell-based; conditions: E. faecium isolate 1,225
Procedure: as §1, §2, §3, §4

[4] = tested on: Enterococcus faecium clinical isolate 550; format: cell-based; conditions: E. faecium isolate 550
Procedure: as §1, §2, §3, §4

[5] = tested on: Enterococcus faecium clinical isolate 1,462; format: cell-based; conditions: E. faecium isolate 1,462
Procedure: as §1, §2, §3, §4

[6] = tested on: Klebsiella pneumoniae clinical isolate 50,424; format: cell-based; conditions: K. pneumoniae isolate 50,424
Procedure: as §1, §2, §3, §4

[7] = tested on: Staphylococcus aureus clinical isolate 43,062; format: cell-based; conditions: S. aureus isolate 43,062
Procedure: as §1, §2, §3, §4

[8] = tested on: Klebsiella pneumoniae clinical isolate 50,181; format: cell-based; conditions: K. pneumoniae isolate 50,181
Procedure: as §1, §2, §3, §4

[9] = tested on: Pseudomonas aeruginosa clinical isolate 48,526; format: cell-based; conditions: P. aeruginosa isolate 48,526
Procedure: as §1, §2, §3, §4

[10] = tested on: Staphylococcus aureus clinical isolate 43,337; format: cell-based; conditions: S. aureus isolate 43,337
Procedure: as §1, §2, §3, §4

[11] = tested on: Klebsiella pneumoniae clinical isolate 51,048; format: cell-based; conditions: K. pneumoniae isolate 51,048
Procedure: as §1, §2, §3, §4

[12] = tested on: Staphylococcus aureus clinical isolate 48,575; format: cell-based; conditions: S. aureus isolate 48,575
Procedure: as §1, §2, §3, §4

[13] = tested on: Pseudomonas aeruginosa clinical isolate 48,221; format: cell-based; conditions: P. aeruginosa isolate 48,221
Procedure: as §1, §2, §3, §4

[14] = tested on: Enterococcus faecium clinical isolate 1,461; format: cell-based; conditions: E. faecium isolate 1,461
Procedure: as §1, §2, §3, §4

[15] = tested on: Staphylococcus aureus clinical isolate 52,013; format: cell-based; conditions: S. aureus isolate 52,013
Procedure: as §1, §2, §3, §4

[16] = tested on: Staphylococcus aureus clinical isolate 48,577; format: cell-based; conditions: S. aureus isolate 48,577
Procedure: as §1, §2, §3, §4

[17] = broth microdilution, 24 h 37°C, OD620, 50% growth inhibition
[18] = plated on agar 18 h 37°C, 99.9% reduction

Question: With “(RRWQWR)4K2Ahx2C2 (disulfide) [LfcinB (20–25)4, branched tetrameric peptide (RRWQWR)4K2Ahx2C2, two dimers linked by a cysteine disulfide bridge]” as the substance, how does the “Fold (GM peptide / GM tetrameric peptide)” value ([1]; Gram-negative clinical isolates) read?
Answer: 1.0

Question: What about the Gm, geometric mean of MIC50 values ([1]; Gram-negative clinical isolates (K. pneumoniae, P. aeruginosa) with a printed MIC50) of the same substance?
Answer: 9.7 µM

Question: What about the MIC50 [2, 17] of the same substance?
Answer: 12.6 µM

Question: And the MBC [2, 18]?
Answer: 25.0 µM

Question: And the MIC50 [3, 17]?
Answer: >100 µM

Question: What about the MBC [3, 18] of the same substance?
Answer: 12.5 µM

Question: What about the MIC50 [4, 17] of the same substance?
Answer: >100 µM

Question: What about the MBC [4, 18] of the same substance?
Answer: 12.5 µM

Question: What about the MIC50 [5, 17] of the same substance?
Answer: >100 µM

Question: What about the MBC [5, 18] of the same substance?
Answer: 12.5 µM

Question: And the MIC50 [6, 17]?
Answer: 7.8 µM

Question: And the MBC [6, 18]?
Answer: 100.0 µM

Question: What about the MIC50 [7, 17] of the same substance?
Answer: 6.7 µM

Question: And the MBC [7, 18]?
Answer: 12.5 µM

Question: What about the MIC50 [8, 17] of the same substance?
Answer: 5.5 µM

Question: What about the MBC [8, 18] of the same substance?
Answer: 100.0 µM

Question: What about the MIC50 [9, 17] of the same substance?
Answer: 24.9 µM

Question: What about the MBC [9, 18] of the same substance?
Answer: >100 µM

Question: What about the MIC50 [10, 17] of the same substance?
Answer: 6.3 µM

Question: And the MBC [10, 18]?
Answer: 12.5 µM

Question: And the MIC50 [11, 17]?
Answer: 5.2 µM

Question: What about the MBC [11, 18] of the same substance?
Answer: 50.0 µM

Question: What about the MIC50 [12, 17] of the same substance?
Answer: 9.2 µM

Question: And the MBC [12, 18]?
Answer: 12.5 µM

Question: And the MIC50 [13, 17]?
Answer: 11.9 µM

Question: What about the MBC [13, 18] of the same substance?
Answer: 50.0 µM

Question: What about the MIC50 [14, 17] of the same substance?
Answer: >100 µM

Question: What about the MBC [14, 18] of the same substance?
Answer: 12.5 µM

Question: What about the MIC50 [15, 17] of the same substance?
Answer: 6.7 µM

Question: And the MBC [15, 18]?
Answer: 12.5 µM

Question: What about the MIC50 [16, 17] of the same substance?
Answer: 6.3 µM

Question: And the MBC [16, 18]?
Answer: 100.0 µM
